Experimental data as given in ChEMBL document CHEMBL1128617, “4-Deoxy-4-aminoavermectins with potent broad spectrum antiparasitic activities” (1995).

Experiments:
Format in all cases: functional
Trichostrongylus axei [1] = experiment: Antiparasitic activity against Trichostrongylus axei at dose of 0.10 mg/kg in sheep anthelmintic test
Haemonchus contortus [2] = experiment: Antiparasitic activity against Haemonchus contortus at dose of 0.10 mg/kg in sheep anthelmintic test
[3] = test system: Trichostrongylus colubriformis; experiment: Antiparasitic activity against Trichostrongylus colubriformis at dose of 0.10 mg/kg in sheep anthelmintic test
[4] = test system: Teladorsagia circumcincta; experiment: Antiparasitic activity against Ostertagia circumcincta at dose of 0.10 mg/kg in sheep anthelmintic test
Artemia = experiment: In vitro antiparasitic activity in brine shrimp assay
[5] = test system: Oesophagostomum columbianum; experiment: Antiparasitic activity against Oesophagostomum columbianum at dose of 0.10 mg/kg in sheep anthelmintic test
Cooperia [6] = experiment: Antiparasitic activity against Cooperia […] at dose of 0.10 mg/kg in sheep anthelmintic test; conditions: dose 0.1 mg/kg
Cooperia oncophora [7] = experiment: Antiparasitic activity against Cooperia oncophora at dose of 0.10 mg/kg in sheep anthelmintic test
Cooperia oncophora [8] = experiment: (§1) Antiparasitic activity against Cooperia oncophora at dose of 0.05 mg/kg in sheep anthelmintic test
Cooperia [9] = experiment: (§2) Antiparasitic activity against Cooperia […] at dose of 0.05 mg/kg in sheep anthelmintic test
Haemonchus contortus [10] = experiment: (§3) Antiparasitic activity against Haemonchus contortus at dose of 0.05 mg/kg in sheep anthelmintic test
[11] = test system: Trichostrongylus colubriformis; experiment: (§4) Antiparasitic activity against Trichostrongylus colubriformis at dose of 0.05 mg/kg in sheep anthelmintic test
[12] = test system: Teladorsagia circumcincta; experiment: (§5) Antiparasitic activity against Ostertagia circumcincta at dose of 0.05 mg/kg in sheep anthelmintic test
Trichostrongylus axei [13] = experiment: (§6) Antiparasitic activity against Trichostrongylus axei at dose of 0.05 mg/kg in sheep anthelmintic test
[14] = test system: Oesophagostomum columbianum; experiment: (§7) Antiparasitic activity against Oesophagostomum columbianum at dose of 0.05 mg/kg in sheep anthelmintic test
Ovis aries [15] = experiment: Antiparasitic activity against Cooperia […] at dose of 0.20 mg/kg in sheep anthelmintic test; conditions: dose 0.2 mg/kg
Ovis aries [16] = experiment: Antiparasitic activity against Ostertagia circumcincta at dose of 0.20 mg/kg in sheep anthelmintic test; conditions: dose 0.2 mg/kg
Ovis aries [17] = experiment: Antiparasitic activity against Cooperia oncophora at dose of 0.20 mg/kg in sheep anthelmintic test; conditions: dose 0.2 mg/kg
Ovis aries [18] = experiment: Antiparasitic activity against Trichostrongylus axei at dose of 0.20 mg/kg in sheep anthelmintic test; conditions: dose 0.2 mg/kg
Ovis aries [19] = experiment: Antiparasitic activity against Trichostrongylus colubriformis at dose of 0.20 mg/kg in sheep anthelmintic test; conditions: dose 0.2 mg/kg
Ovis aries [20] = experiment: Antiparasitic activity against Oesophagostomum columbianum at dose of 0.20 mg/kg in sheep anthelmintic test; conditions: dose 0.2 mg/kg
Ovis aries [21] = experiment: Antiparasitic activity against Haemonchus contortus at dose of 0.20 mg/kg in sheep anthelmintic test; conditions: dose 0.2 mg/kg
Ovis aries [22] = experiment: as §1
Ovis aries [23] = experiment: as §2
Ovis aries [24] = experiment: as §3
Ovis aries [25] = experiment: as §4
Ovis aries [26] = experiment: as §5
Ovis aries [27] = experiment: as §6
Ovis aries [28] = experiment: as §7

## CCC(C)[C@H]1O[C@]2(CC[C@@H]1C)C[C@@H]1C[C@@H](C/C=C(\C)[C@@H](O[C@H]3C[C@H](OC)[C@@H](O[C@H]4C[C@H](OC)[C@H](NC(C)=O)[C@H](C)O4)[C@H](C)O3)[C@@H](C)/C=C/C=C3\CO[C@@H]4[C@H](O)C(C)=C[C@@H](C(=O)O1)[C@]34O)O2 (stereo not given in full)
Trichostrongylus axei [1]; dose 0.1 mg/kg
  Reduction: >95%
Haemonchus contortus [2]; dose 0.1 mg/kg
  Reduction: >95%
[3]; dose 0.1 mg/kg
  Reduction: >95%
[4]; dose 0.1 mg/kg
  Reduction: >95%
Artemia
  IC100: 650 ng/mL
[5]; dose 0.1 mg/kg
  Reduction: >95%
Cooperia [6]
  Reduction: >95%
Cooperia oncophora [7]; dose 0.1 mg/kg
  Reduction: >95%

## CCC(C)[C@H]1O[C@]2(C=C[C@@H]1C)C[C@@H]1C[C@@H](C/C=C(\C)[C@@H](O[C@H]3C[C@H](OC)[C@@H](O[C@H]4C[C@@H](OC)[C@@H](NC(C)=O)[C@H](C)O4)[C@H](C)O3)[C@@H](C)/C=C/C=C3\CO[C@@H]4[C@H](O)C(C)=C[C@@H](C(=O)O1)[C@]34O)O2 (stereo not given in full)
Cooperia oncophora [8]
  Reduction: 76%
Cooperia [9]
  Reduction: <50%
Haemonchus contortus [10]
  Reduction: >95%
[11]
  Reduction: >95%
[12]
  Reduction: >95%
Artemia
  IC100: 430 ng/mL
Trichostrongylus axei [13]
  Reduction: >95%
[14]
  Reduction: >95%

## IVERMECTIN
Trichostrongylus axei [1]
  Reduction: > 95%
Haemonchus contortus [2]
  Reduction: > 95%
[3]
  Reduction: > 95%
[4]
  Reduction: > 95%
Artemia
  IC100: 430 ng/mL
[5]
  Reduction: > 95%
Cooperia oncophora [7]
  Reduction: > 95%

## CCC(C)[C@H]1O[C@]2(C=C[C@@H]1C)C[C@@H]1C[C@@H](C/C=C(\C)[C@@H](O[C@H]3C[C@H](OC)[C@@H](O[C@H]4C[C@H](OC)[C@H](NC=O)[C@H](C)O4)[C@H](C)O3)[C@@H](C)/C=C/C=C3\CO[C@@H]4[C@H](O)C(C)=C[C@@H](C(=O)O1)[C@]34O)O2 (stereo not given in full)
Cooperia oncophora [8]
  Reduction: >95%
Cooperia [9]
  Reduction: >95%
Haemonchus contortus [10]
  Reduction: >95%
[11]
  Reduction: >95%
[12]
  Reduction: >95%
Artemia
  IC100: 380 ng/mL
Trichostrongylus axei [13]
  Reduction: >95%
[14]
  Reduction: >95%

## CCC(C)[C@H]1O[C@]2(C=C[C@@H]1C)C[C@@H]1C[C@@H](C/C=C(\C)[C@@H](O[C@H]3C[C@H](OC)[C@@H](O[C@H]4C[C@H](OC)[C@H](NCc5ccccc5)[C@H](C)O4)[C@H](C)O3)[C@@H](C)/C=C/C=C3\CO[C@@H]4[C@H](O)C(C)=C[C@@H](C(=O)O1)[C@]34O)O2 (stereo not given in full)
Ovis aries [15]
  Reduction: >95%
Ovis aries [16]
  Reduction: >95%
Ovis aries [17]
  Reduction: >95%
Ovis aries [18]
  Reduction: <50%
Ovis aries [19]
  Reduction: >95%
Ovis aries [20]
  Reduction: >95%
Artemia
  IC100: >55500 ng/mL
Ovis aries [21]
  Reduction: >95%

## CCC(C)[C@H]1O[C@]2(C=C[C@@H]1C)C[C@@H]1C[C@@H](C/C=C(\C)[C@@H](O[C@H]3C[C@H](OC)[C@@H](O[C@H]4C[C@H](OC)[C@H](NC(C)C)[C@H](C)O4)[C@H](C)O3)[C@@H](C)/C=C/C=C3\CO[C@@H]4[C@H](O)C(C)=C[C@@H](C(=O)O1)[C@]34O)O2 (stereo not given in full)
Ovis aries [22]
  Reduction: 51%
Ovis aries [23]
  Reduction: 51%
Ovis aries [24]
  Reduction: 76%
Ovis aries [25]
  Reduction: 51%
Ovis aries [26]
  Reduction: <50%
Artemia
  IC100: 1730 ng/mL
Ovis aries [27]
  Reduction: <50%
Ovis aries [28]
  Reduction: >95%

## CCC(C)[C@H]1O[C@]2(C=C[C@@H]1C)C[C@@H]1C[C@@H](C/C=C(\C)[C@@H](O[C@H]3C[C@H](OC)[C@@H](O[C@H]4C[C@H](OC)[C@@H](NC(C)=O)[C@H](C)O4)[C@H](C)O3)[C@@H](C)/C=C/C=C3\CO[C@@H]4[C@H](O)C(C)=C[C@@H](C(=O)O1)[C@]34O)O2 (stereo not given in full)
Cooperia oncophora [8]
  Reduction: >95%
Cooperia [9]
  Reduction: 76%
Haemonchus contortus [10]
  Reduction: >95%
[11]
  Reduction: <50%
[12]
  Reduction: <50%
Artemia
  IC100: 325 ng/mL
Trichostrongylus axei [13]
  Reduction: >95%
[14]
  Reduction: >95%
